Measured values taken from article PMC5045412, “Inhibition of pro-HGF activation by SRI31215, a novel approach to block oncogenic HGF/MET signaling” (Oncotarget, 2016).

Assays:
trypsin = assay: Protease panel, FRET peptide substrate; type: biochemical
Description: (§1) The inhibitory activity of SRI 31215 was tested in a panel of six proteases, which included matriptase, hepsin, HGFA, trypsin, thrombin and coagulation factor Xa. All six enzymes were purchased from R&D Systems. The assay buffer used was 50 mM Tris, 20 mM NaCl, 0.01% Tween 20, pH 8.0. The substrate was a custom FRET peptide based on the pro-HGF cleavage sequence (H2N-(EEdans)GKQLRVVNGG(KDabcyl)-amide) pre- pared by New England Peptide. All measurements were made using an Aminco-Bowman Series 2 Luminescence Spectrometer.

matriptase = target: T1, matriptase (Homo sapiens, UniProt Q9Y5Y6); assay: Protease panel, FRET peptide substrate; type: biochemical
T1 construct: purchased R&D Systems
T1 sequence (Q9Y5Y6 1-855): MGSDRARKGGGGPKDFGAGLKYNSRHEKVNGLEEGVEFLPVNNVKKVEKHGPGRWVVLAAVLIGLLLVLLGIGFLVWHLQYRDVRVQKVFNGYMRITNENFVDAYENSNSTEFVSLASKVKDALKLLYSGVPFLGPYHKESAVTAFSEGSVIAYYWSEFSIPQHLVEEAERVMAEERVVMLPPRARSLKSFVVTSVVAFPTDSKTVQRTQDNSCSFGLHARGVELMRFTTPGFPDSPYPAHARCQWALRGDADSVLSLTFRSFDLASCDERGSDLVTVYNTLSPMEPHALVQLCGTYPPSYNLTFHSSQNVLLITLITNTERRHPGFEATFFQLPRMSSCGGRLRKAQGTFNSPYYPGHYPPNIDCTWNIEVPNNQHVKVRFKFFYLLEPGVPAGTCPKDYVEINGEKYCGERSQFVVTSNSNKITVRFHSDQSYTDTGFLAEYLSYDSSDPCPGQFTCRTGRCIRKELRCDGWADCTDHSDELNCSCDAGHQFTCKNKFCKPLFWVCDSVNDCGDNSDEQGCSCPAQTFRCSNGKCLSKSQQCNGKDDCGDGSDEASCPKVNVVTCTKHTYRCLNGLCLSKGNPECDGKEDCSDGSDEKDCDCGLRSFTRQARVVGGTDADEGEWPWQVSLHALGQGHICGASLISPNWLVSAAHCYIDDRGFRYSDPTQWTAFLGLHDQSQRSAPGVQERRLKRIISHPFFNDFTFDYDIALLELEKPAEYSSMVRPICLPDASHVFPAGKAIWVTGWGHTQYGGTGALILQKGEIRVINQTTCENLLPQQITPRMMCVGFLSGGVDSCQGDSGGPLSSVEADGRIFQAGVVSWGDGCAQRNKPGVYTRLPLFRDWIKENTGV
Description: as §1

HGFA = target: T2, HGFA (Homo sapiens, UniProt Q04756); assay: Protease panel, FRET peptide substrate; type: biochemical
T2 construct: purchased R&D Systems
T2 sequence (Q04756 373-655): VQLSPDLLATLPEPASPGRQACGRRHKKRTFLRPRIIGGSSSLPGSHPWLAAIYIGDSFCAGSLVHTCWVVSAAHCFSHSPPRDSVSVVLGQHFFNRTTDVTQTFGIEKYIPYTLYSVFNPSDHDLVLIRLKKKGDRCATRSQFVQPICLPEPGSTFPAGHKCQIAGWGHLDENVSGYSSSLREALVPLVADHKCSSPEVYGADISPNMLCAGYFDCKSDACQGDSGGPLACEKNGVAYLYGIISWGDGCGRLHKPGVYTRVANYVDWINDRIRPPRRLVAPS
Description: as §1

hepsin = target: T3, hepsin (Homo sapiens, UniProt P05981); assay: Protease panel, FRET peptide substrate; type: biochemical
T3 construct: purchased R&D Systems
Description: as §1

thrombin = target: T4, thrombin (Homo sapiens, UniProt P00734); assay: Protease panel, FRET peptide substrate; type: biochemical
T4 construct: purchased R&D Systems
Description: as §1

DU145 cells = tested on: DU145 cells; set-up: method as in PMID 26985294; details: dose-dependent; cited from earlier work
recombinant human HGFA = target: T5, recombinant human HGFA (Homo sapiens, UniProt Q04756); assay: Proteolytic activation of pro-HGF by HGFA (immunoblotting); type: biochemical; details: SRI 31215 10 μM, HAI-1 20 nM, HGFA 1 nM
T5 construct: purchased R&D Systems
T5 sequence (Q04756 408-655 limits assumed): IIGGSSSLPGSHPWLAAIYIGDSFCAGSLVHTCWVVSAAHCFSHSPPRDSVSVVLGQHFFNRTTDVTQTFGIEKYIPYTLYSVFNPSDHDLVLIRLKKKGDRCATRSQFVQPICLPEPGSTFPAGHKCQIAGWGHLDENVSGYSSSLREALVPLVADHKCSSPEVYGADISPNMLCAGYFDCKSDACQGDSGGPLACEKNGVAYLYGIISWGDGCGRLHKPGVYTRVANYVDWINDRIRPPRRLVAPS
T5 sequence (Q04756 373-407 partner limits assumed): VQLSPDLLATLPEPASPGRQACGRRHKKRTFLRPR
Description: Recombinant human HAI-1, recombinant human HGFA, and recombinant human HGF propeptide (pro-HGF) were purchased from R&D Systems. SRI 31215 (10 μM) or recombinant human HAI-1 (20 nM) were mixed with activated recombinant human HGFA pro-peptide (1nM) in TNC buffer (pH 8.0) and incubated at room temperature for 30 minutes. Recombinant human pro-HGF (40 ng) was added and incubated at 37°C for 1 hour. The reaction was stopped by SDS-PAGE gel sample buffer and samples were boiled and separated by 12% PAGE. Proteins were transferred onto nitrocellulose membrane, blocked with 5% milk and immunoblotted using antibodies that recognize pro-HGF as well as α and β chains of activated HGF.

T3 sequence (P05981 whole entry): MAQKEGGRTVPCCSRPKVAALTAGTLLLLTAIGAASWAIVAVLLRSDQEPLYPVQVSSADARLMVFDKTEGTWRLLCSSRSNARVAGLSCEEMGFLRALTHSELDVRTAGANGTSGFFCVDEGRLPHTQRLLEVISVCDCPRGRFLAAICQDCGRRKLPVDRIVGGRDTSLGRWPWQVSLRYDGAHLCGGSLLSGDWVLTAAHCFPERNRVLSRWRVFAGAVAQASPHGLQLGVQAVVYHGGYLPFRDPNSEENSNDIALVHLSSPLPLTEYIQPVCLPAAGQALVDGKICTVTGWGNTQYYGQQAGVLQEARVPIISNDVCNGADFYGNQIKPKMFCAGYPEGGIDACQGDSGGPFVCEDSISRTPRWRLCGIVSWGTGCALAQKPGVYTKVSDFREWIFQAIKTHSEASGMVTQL

IC50 (matriptase): 690 nM
IC50 (HGFA): 300 nM
IC50 (hepsin): 650 nM
selectivity for thrombin (thrombin): acceptable
HGFA-induced cleavage of pro-HGF into alpha and beta chains (recombinant human HGFA): inhibited
SMILES: CC1CN(CC2CCN(Cc3ccccc3)CC2)C(=O)N(c2cccc(C(=N)N)c2)C1 (stereo not shown) [SRI 31215, 3-(3-((1-benzylpiperidin-4-yl)methyl)-5-methyl-2-oxotetrahydropyrimidin-1(2H)-yl)benzimidamide]
selectivity for trypsin (trypsin): acceptable
concentration at which biological activity (block of scattering) was detected (DU145 cells): 1 μM
